In publication PMC4639830, “Inhibition of DYRK1A and GSK3B induces human β-cell proliferation” (Nature Communications, 2015):

How the values were obtained:
diabetic RIP-DTA mice = experiment: RIP-DTA mouse model of T1D; type: in vivo; settings: 50 mg kg^−1 twice daily
Description: All animal care and experimental procedures were approved by the Institutional Animal Care and Use Committee (IACUC) of Genomics Institute of the Novartis Research Foundation and strictly followed the NIH guidelines for humane treatment of animals. The double transgenic RIP-DTA male mice (Tg(Ins2-rtTA)2Efr Tg(teto-DTA)1Gfi/J; Jackson Laboratory, Stock # 008755) were bred in-house and were maintained in a 12-h light/12-dark cycle environment with controlled temperature, humidity and ventilation. Animals were housed 3–5 mice per cage and had free access to water and standard laboratory chow. To induce pancreatic β-cell ablation and hyperglycaemia, doxycycline (200 μg ml^−1, Sigma-Aldrich) was provided in the drinking water for 5 days. Blood glucose levels were measured from tail-vein blood with a glucometer (AlphaTrak2 Monitoring System; Abbott). Experimental groups of 14 male mice each were randomized based on similar body weights (28.8±2.4 g), age (82±2 days), and blood glucose levels (428±96 mg dl^−1). Group sizes of eight animals each are sufficient to reliably detect changes in glycaemic control and β-cell mass based on historical data with reference compounds; an additional six mice were added to each group to assess total pancreatic insulin levels. […] A sub-set of animals were not given doxycycline treatment and were used as a non-diabetic vehicle–control group. All compounds were administered daily via oral gavage (4 ml kg^−1). Body weight and blood glucose were monitored every third day. An oral glucose tolerance test was performed after an overnight fast on day 12. For the insulin tolerance test, mice were fasted for 4 h before the administration of insulin (Novolin, Novo Nordisk, 0.7 U kg^−1 body weight, i.p.). Pancreatic insulin content was determined by MSD (meso-scale discovery). […] To determine β-cell proliferation and β-cell mass by morphological analyses, pancreata from the rest of animals (n=8) were rapidly dissected, fixed in formalin, sectioned and immunostained for insulin, Ki67 and BrdU on day 16. Male NSG mice, aged 8 weeks, were obtained from the Jackson Laboratory (Strain NOD.Cg-Prkdc^scid Il2rg^tm1Wjl/SzJ; Stock number 005557) and housed according to IACUC guidelines. Baseline body weight and tail-vein blood glucose measurements were recorded before diabetic induction. To obtain a diabetic state, animals were given an intraperitoneal dose of STZ (135 mg kg^−1) and blood glucose was monitored before transplant. Mice were grouped according to body weight and blood glucose level on the day of transplants (72 h after STZ treatment).
Pancreas specimens were harvested, weighed, fixed in 10% neutral buffered formalin and processed using standard paraffin processing techniques. Five micrometre serial-step sections were mounted onto Superfrost Plus slides and air-dried overnight. Samples were coded before histologic analyses resulting in blinded processing and staining. Routine hematoxylin and eosin (H&E) stains were performed on all specimens. Immunostaining was performed using the Ventana Discovery XT system. All epitope retrieval was done on the instrument using CC1 reagent. Chromogenic insulin was detected using guinea pig anti-insulin (Dako Corp A0564) at 1:3,200 and the Blue Map kit, after serum blocking and endogenous biotin blocking was performed, slides were then counterstained with Nuclear Fast Red. Fluorescent insulin and Ki67 double stains used a cocktail of the Dako anti-insulin at 1:1,600 and rabbit monoclonal Ki67 (Thermo RM9106) at 1:100, and were detected using a cocktail of Alexa Fluor 488 and 594-labelled secondary antibodies. Auto-fluorescence was quenched in red blood cells and reduced in connective tissue by treatment with 10 mM copper sulfate. Slides were counterstained with DAPI. 21 slides were collected per block. All slides were imaged on the Hamamatsu Nanozoomer and evaluated for β-cell mass and proliferation. […]

Fyn = target: T1, Fyn (Homo sapiens, UniProt P06241); experiment: Kinase profiling; type: biochemical; settings: read-out: Percent inhibition, Fyn
T1 construct: purchased Ambit KINOMEscan
T1 sequence (P06241 whole entry): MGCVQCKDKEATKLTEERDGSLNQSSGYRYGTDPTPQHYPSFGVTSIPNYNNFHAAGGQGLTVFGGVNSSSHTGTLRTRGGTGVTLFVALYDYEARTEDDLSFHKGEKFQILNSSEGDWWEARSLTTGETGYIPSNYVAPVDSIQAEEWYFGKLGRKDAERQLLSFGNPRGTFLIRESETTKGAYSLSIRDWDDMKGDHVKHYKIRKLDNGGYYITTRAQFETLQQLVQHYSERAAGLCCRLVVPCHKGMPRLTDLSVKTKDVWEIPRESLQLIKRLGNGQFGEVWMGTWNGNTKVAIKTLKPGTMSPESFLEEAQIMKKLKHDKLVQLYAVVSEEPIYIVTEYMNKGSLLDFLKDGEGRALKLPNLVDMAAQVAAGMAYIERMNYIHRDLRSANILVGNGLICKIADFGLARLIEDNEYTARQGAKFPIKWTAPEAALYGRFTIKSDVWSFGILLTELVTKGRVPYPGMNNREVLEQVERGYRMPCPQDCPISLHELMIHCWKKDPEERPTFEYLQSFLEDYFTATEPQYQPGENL
Description: ; Fig. 5a; Supplementary Table 1). We focused on Dyrk1a because other kinases inhibited by aminopyrazine compounds were not highly expressed in β-cells and because Dyrk1a was known to inhibit the NFAT pathway that was previously implicated in β-cell proliferation. We used molecular modelling to dock the aminopyrazine compounds into the published structure of Dyrk1a (protein databank accession code 2vx3.pdb; Fig. 5b).

[1] = system: human islets transplanted into STZ-treated NOD-SCID mice; experiment: Transplantation of compound-treated human islets into STZ-treated NOD-SCID mice; type: in vivo, mouse; settings: islets treated in vitro before transplantation
Description: Figure 2 AP compounds expand human islets ex vivo with retention of function after transplantation. […] (a) Immunofluorescence for insulin, Ki67 and DAPI on DMSO or GNF4877-treated human intact islets (scale bar, 50 μm). (b) Quantification of Ki67+ as a percent of total insulin+ cells (n=3). […] Data are shown as mean±s.d. (six mice per group; transplanted with islets from a single human donor). […] Data shown as mean±s.d.; (n=6 mice/group, *P<0.05, Student's t-test).
We tested whether aminopyrazine treatment of islets compromised their ability to secrete insulin in vitro and, after transplantation, in vivo.

Compound	oral glucose tolerance vs vehicle (diabetic RIP-DTA mice; 14 days of dosing)	body weight, appearance or behaviour vs vehicle (diabetic RIP-DTA mice; oral)	insulin tolerance vs vehicle (diabetic RIP-DTA mice; oral)	non-fasting blood glucose levels (diabetic RIP-DTA mice; oral)	β-cell mass, increase vs vehicle-treated diabetic mice (diabetic RIP-DTA mice; oral, 14 days)	insulin content, increase vs vehicle-treated diabetic mice (diabetic RIP-DTA mice; oral, whole pancreas lysate, 15 days)	inhibition at 0.2 µM (Fyn; Conc 200 nM)	inhibition at 1 µM (Fyn; Conc 1000 nM)	euglycemia after transplantation of treated islets [1]
CC(C)Oc1ccc(F)c(-c2cnc(N)c(C(=O)Nc3cnccc3N3CCC[C@@H](C(=O)O)C3)n2)c1 [GNF4877]	dramatically improved glucose tolerance	did not show any difference in body weight	without a significant difference in insulin tolerance	progressive reduction of non-fasting blood glucose levels	~1.5 fold	twofold	26%	77%	
Nc1ncc(-c2ccccc2)nc1C(=O)Nc1cnccc1N1CCC(C(=O)O)CC1 [GNF7156]									maintained the ability to preserve euglycemia
